Measured values: patent US10053455B2, “Diazaspiroalkaneone-substituted oxazole derivatives as spleen tyrosine kinase inhibitors” (AB SCIENCE, priority 2014, dated 2018)

How the values were obtained:
[1] = tested on: Salmonella typhimurium strain TA100; conditions: Salmonella typhimurium
Protocol: (§1) Mutagenic activity of test compounds and their metabolites (produced by rat liver S9 fraction) was evaluated in the Salmonella typhimurium strains TA100 and TA98 according to the Ames assay (Toxicology in vitro, (2001), 15: 105-114). […] The results are expressed as a mutagenicity ratio in comparison to solvent controls.
(§2) The results are expressed as a ratio of the number of colonies over the number of colonies in the negative control (DMSO).

[2] = tested on: Salmonella typhimurium strain TA98; experiment: AMES mutagenic assay, TA98 strain; conditions: TA98, presence of S-9, 1 μg per well (positive control)
Protocol: as §1, §2

[3] = tested on: primary human adult cardiomyocytes; experiment: WST-1 cell survival/proliferation assay on human cardiomyocytes; assay type: cell-based; conditions: Human Cardiac Myocyte
Protocol: WST-1 cell survival/proliferation assay (Roche Diagnostic ref No 1644807) was performed on both primary human adult cardiomyocytes and rat neonatal cardiac myocytes.
Human cardiomyocytes were isolated from normal human ventricle tissue of the adult heart and were able to proliferate for a number of passage. Neonatal ventricular Clonetics® Rat Cardiac Myocytes (P1-3) retained their contractile property and were electrophysiologically active in culture. 1.10^4 primary rat cells or 2-2.5 10^4 adult human cells were plated per well of a 96 wells plates. The cells were allowed to adhere to the plates for 5 days before drug treatment. Treatment was initiated by addition of a 2× drug solution of ½ serial dilutions ranging from 0 to 10 μM. Cells were grown for 48 h at 37° C. and then incubated with 10 μl/well of WST-1 reagent for 4 h at 37° C. The amount of formazan dye formed was quantified by its absorbance at 450 nm using a scanning multiwell spectrophotometer (MultiSkan MS, Thermo-LabSystems, France). A blank well without cells was used as a background control for the spectrophotometer and all assays were performed in triplicate.

[4] = tested on: Murine bone marrow mast cells (BMMCs); experiment: IgE-mediated mast cell degranulation assay (β-hexosaminidase release); assay type: cell-based, C57BL/6J mice
Protocol: In vitro mast cell degranulation assay monitored by released of β-hexosaminidase. Murine bone marrow mast cells (BMMCs) are obtained by flushing bone marrow cells from the femurs of C57BL/6J mice, then cultured for 3-4 weeks in RPMI containing mouse recombinant IL-3 (30 ng/ml). RBL-2H3 is a rat basophile cell line maintained in monolayer culture in EMEM supplemented with 20% FCS, 1 mM Glutamine and 1× antibiotics. Cells were sensitized overnight with 0.2 μg/ml anti-DNP-IgE (Sigma-Aldrich D8406). […] After incubation 90 min at 37° C., the reaction was quenched by addition of 100 μl of sodium carbonate buffer (0.1M Na2CO3/NaHCO3 pH 10.0). β-hexosaminidase activity was quantified by reading plate absorbance at 405 nm with reference at 620 nm using a PolarSTAR reader plate (BMG labech).
The activity of anti-SYK compounds was tested in an IgE-mediated mast cell degranulation assay. SYK has been identified to be critical for the initiation of mast cell mediator release following the aggregation of FcεRI.

murine model of asthma = experiment: Mouse model of asthma: eosinophils recruitment in bronchio-alveolar lavage; assay type: in vivo, Balb/c male mice
Protocol: Balb/c male mice, 8 weeks old, were purchased from Janvier (Le Genest-Saint-Isle; FRANCE) and bred in the animal facility for 4 weeks. Drugs were dissolved in drinking solvent (80% water; 10% Tween 80 and 10% isopropanediol). It was aliquoted and stored at −20° C. Each mouse received drugs twice a day. The weight of animals was calculated before and after treatment.
Mice, 9 weeks of age, were sensitized with 50 μg of ovalbumin (Sigma-Aldrich, Germany) adsorbed to 2 mg Al(OH)3 (Prolabo, France) and diluted in physiological saline (0.9% NaCl). Ovalbumin was injected intraperitoneally on days 1 and 7. Sensitization was followed by intranasal challenges with 10 μg of ovalbumin diluted in 0.9% NaCl, each day from day 18 to day 21. On days 17 to 21, animals treated with drugs received 100 μl of a solution at 15 mg/ml, at 7.5 mg/ml or at 3.75 mg/ml administered per os twice a day during 5 days. These treatments corresponded to concentration of 60 mg/mouse kg, 30 mg/mouse kg and 15 mg/mouse kg respectively.
Bronchio-alveolar lavage (BAL) was performed after the animals were disconnected from the FlexiVent®. The airways were lavaged with 5 ml (10 times 0.5 ml) ice cold 0.9% NaCl 2.6 mM EDTA. BAL samples were centrifuged at 1200 rpm for 5 minutes at 4° C. Pellet cells were collected and erythrocytes lysed by adding 1.5 ml deionized water for 30 seconds. After neutralization with 0.5 ml of 0.6M KCl, cells were centrifuged at 1200 rpm for 5 minutes at 4° C. BAL samples were used to count the total cell number and to perform cytospins (shandon, Pontoise). Cell types were identified by morphological criteria after Hemacolor (Merck) staining.
Mice were sensitized and challenged with ovalbumin as described in protocol assays above. The mice were distributed in groups of 5-6 animals that were treated twice daily with 7.5 to 60 mg/Kg of anti-SYK/KIT drugs (PO).

c-Ret mut = experiment: HTRF kinase assay, c-Ret mut; assay type: biochemical; conditions: enzymatic determination
Protocol: Most of the kinases tested in this study were cloned, expressed and purified in the facilities of the inventors. They were expressed either as N-terminus hexahistidine-, hexahistidine-asparagine- or GST-tagged enzymes in a baculovirus or in a Colibacille expression system. Remaining enzymes (JAKs) were purchased from Millipore or Proqinase. For each enzyme, steady state kinetic parameters were determined and validated with known inhibitors.
The analysis of the effect of compounds on kinase activity was assessed with the HTRF® KinEASE assay (Cisbio International), an immuno-assay based on the quantification of the level of phosphorylation of a biotinylated peptide substrate using anti-phospho-specific antibody labeled with Europium (Eu^3+) cryptate. This assay comprises two steps: —an enzymatic step, during which the peptide substrate, the kinase, ATP, Mg^2+ and/or Mn^2+ are incubated with varying concentration of drug (from 0 to 10 μM); —a detection step, at the end of the reaction (stopped by addition of EDTA which chelates Mg^2+), the antibody anti-phospho peptide-Eu^3+ (emission 620 nm) and streptavidin XL-665 (emission 665 nm) are added to the reaction mix. […] Results are expressed in delta fluorescence (DF) unit defined as follow DF %=[(ratio−ratio blank)/(ratio blank)]*100, where ratio=(665 nm/620 nm)*10^4. […]

[5] = tested on: murine model of arthritis; experiment: K/BxN serum mouse model of rheumatoid arthritis: ankle thickening and arthritis score; assay type: in vivo, C57Bl/6 mice; conditions: 50 mg/kg b.i.d.
Protocol: K/B×N serum pools were prepared from arthritic mice at 8 weeks of age. The mice were pre-treated with SYK inhibitors by two per os administration for two days before induction of arthritis. Arthritis was induced in the C57Bl/6 mice (8 weeks of age) by intraperitoneal injection (7.5 μl serum per g weight) at days 0 and 2.
The treatment with SYK inhibitors was continued for 13 days. The control mice were injected with solvent before the induction of arthritis and during the course of the disease. The compounds were dissolved in a solution containing 10% of Tween 80 and 10% 1-2 propandiol. It was prepared before administration.
Ankle thickening measure, being defined as the difference in ankle thickness from the day 0, was measured using a precision calliper. Arthritis/clinical score was defined by sum of scores of each lim (0 no disease; 1 mild swelling of paw or of just of few digits; 2 clear joint inflammation; 3 severe joint inflammation) maximum score=12.
K/B×N was a murine model of spontaneous rheumatoid arthritis that mimics many of the clinical and histological features of human disease with synovitis predominantly in the distal small joints. Arthritis was induced by intraperitoneal injection of arthritis serum of K/B×N mice at days 0 and 2 as described in protocol assays above. Compound 001 was tested at 15 and 50 mg/kg/day b.i.d. and compared with Masitinib at 50 mg/kg/day b.i.d., an AB Science drug candidate for treating rheumatoid arthritis (Arthritis Res Ther., (2009), 11(3):R95). Ankle thickening and arthritis score were used to monitor the in vivo activity of the compounds.

[6] = Experiment #1, 2 × 30 mg/kg/day PO

Row | SMILES | Ratio treated/solvent [1] | Ratio treated/solvent [2] | % cell viable at 1 μM, Hu-CM ([3]; 1 μM) [%] | IC50 ([3]; 48 h, read-out: Drug-induced cytotoxicity IC50, Hu-CM) [nM] | β-hexosaminidase activity (% control untreated cells) ([4]; 0.01 μM) [%] | β-hexosaminidase activity (% control untreated cells) ([4]; 0.1 μM) [%] | β-hexosaminidase activity (% control untreated cells) ([4]; 1 μM) [%] | Percentage of Eosinophils recruitment in Bronchio-alveolar lavage (BAL) (murine model of asthma; [6]) [%] | IC50 (c-Ret mut) [nM] | Percentage of Eosinophils recruitment in Bronchio-alveolar lavage (BAL) (murine model of asthma; Experiment #1, 2 × 7.5 mg/kg/day PO) [%] | Percentage of Eosinophils recruitment in Bronchio-alveolar lavage (BAL) (murine model of asthma; Experiment #1, 2 × 25 mg/kg/day PO) [%] | Percentage of Eosinophils recruitment in Bronchio-alveolar lavage (BAL) (murine model of asthma; Experiment #2, 2 × 30 mg/kg/day PO) [%] | Ankle Thickening Score [5] [% P < 0.05] | Arthritis Score [5] [%]
1 | Nc1ccc2cc3ccccc3cc2c1 [Compound 2-AM, 2-Anthramine, reference compound] | 18.1 | 138.1 |  |  |  |  |  |  |  |  |  |  |  | 
2 | COc1cc(Nc2ncc(F)c(Nc3ccc4c(n3)NC(=O)C(C)(C)O4)n2)cc(OC)c1OC [Compound R406] |  |  | −18 | 2600 | 78 ± 11 | 16 ± 6 | 3 ± 3 | −31 | 500 |  |  |  |  | 
3 | Cc1ccc(NC(=O)c2ccc(CN3CCN(C)CC3)cc2)cc1Nc1nc(-c2cccnc2)cs1 [Masitinib] |  |  |  |  |  |  |  | −56 |  | −15 | −35 | −47 | −27 | −15
